Test results as given in patent US6228853A, “Pyrrolopyrrolone derivatives as inhibitors of neutrophil elastase” (Glaxo Wellcome Inc., priority 1997, dated 2001).
Where a name gives a salt, the structure may show the parent alone.

Tests used:
[1] = target: T1, human neutrophil elastase (Homo sapiens, UniProt P08246); assay: In vitro assay of human neutrophil elastase; format: biochemical; conditions: in vitro elastase test; purified human neutrophil elastase 11.8 nM, pH 8.6, 15 min at 30° C., 0.6 mM MeO-succinyl-alanyl-alanyl-prolyl-valyl-p-nitroanilide
T1 sequence (P08246 30-267): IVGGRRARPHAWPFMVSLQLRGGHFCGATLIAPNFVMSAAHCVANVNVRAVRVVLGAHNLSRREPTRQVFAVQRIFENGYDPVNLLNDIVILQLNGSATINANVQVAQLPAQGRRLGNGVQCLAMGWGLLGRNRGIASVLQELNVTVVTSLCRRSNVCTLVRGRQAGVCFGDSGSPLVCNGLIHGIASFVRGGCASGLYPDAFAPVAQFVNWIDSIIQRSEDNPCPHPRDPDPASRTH
Method: In vitro assays of human neutrophil elastase Assay contents: 50 mM Tris/HCl (pH 8.6) 150 mM NaCl 11.8 nM purified human neutrophil elastase Suitable concentrations of compound under test diluted with water from a 10 mM stock solution in dimethylsulphoxide. Values above are final concentrations after the addition of substrate solution (see below). The mixture above is incubated for fifteen minutes at 30° C. at which time the remaining elastase activity is measured for 10 minutes in a BioTek 340i plate-reader, after the addition of 0.6 mM MeO-succinyl-alanyl-alanyl-prolyl-valyl-p-nitroanilide. The rate of increase in absorbance at 405 nm is proportional to elastase activity. Enzyme activity is plotted against concentration of inhibitor and an IC50 determined using curve fitting software.

elastase = target: T2, elastase (Homo sapiens, UniProt P08246); assay: Human whole blood elastase inhibition assay; format: cell-based; conditions: heparinised, 30 minutes at 37° C.
T2 construct: fresh, heparinised human whole blood; endogenous in cells; host or cells: leukocytes (neutrophils) of fresh heparinised human whole blood
T2 sequence (P08246 30-267): T1 sequence (P08246 30-267)
Method: Human whole blood elastase inhibition assay
Triplicate aliquots of fresh, heparinised human whole blood (200 μl) are added to appropriately diluted samples (10 μl) of compounds under test. […] Samples are mixed thoroughly by pipette, and are then incubated for 30 minutes at 37° C. Cold red cell lysis buffer (750 μl of 155 mM ammonium chloride, 0.12 mM EDTA, 10 mM potassium bicarbonate, pH 7.4) is then added. Tubes are capped, inverted several times, and maintained at 4° C. for 15 minutes, inverting every 5 minutes. After centrifugation at 250 g for 10 minutes, at 4° C., the resulting pelleted cells are washed. The wash is with saline (300 μl), followed by centrifugation at 100 g for 10 minutes at 4° C. Pellets are washed twice more, before resuspension of the final cell pellet in buffer (200 μl of 100 mM Tris, 300 mM NaCl, 1% (w/v) HTAB, pH 8.6). Samples are stored at -20° C. After freeze-thawing of the samples four times, elastase activity is determined by a calorimetric assay in 50 mM Tris, 150 mM NaCl, 0.6 mM MeO-Succ-Ala-Ala-Ala-Pro-Val-pNA at pH 8.6, measuring the rate of increase in absorbance at 405 nm.

intracellular elastase = assay: Oral in vivo hamster model using IL-8 induced lung infiltrates for assessment of intracellular elastase inhibition; conditions: in vivo hamster IL-8 test, at a dose of less than 10 mg/kg
Method: In vivo activity of inhibitors of human neutrophil elastase:
An oral in vivo model using IL-8 induced lung infiltrates for the assessment of intracellular elastase inhibition
Adult hamsters (100-150 g) are randomised into groups (n=4) and fasted overnight. Under gaseous anaesthetic (3% isofluorane) animals are dosed orally with 1 mL/100 g water as vehicle or containing predissolved compounds. Either at the same time, or subsequently under anaesthetic, animals are dosed intratracheally with 1 ug recombinant human IL-8 in 100 uL sterile saline. Six hours after IL-8 dosing animals are sacrificed using intraperitoneal pentobarbitone. The lungs are lavaged with 2×2.5 mL sterile saline and femurs are removed by dissection.
Intracellular elastase is prepared from neutrophils collected by lavage and from femoral bone marrow. This is achieved by sonication of the neutrophils and centrifugation to yield intracellular granules. These are disrupted by freeze/thawing and sonication. Elastase and myeloperoxidase assays are then performed on these samples to assess the efficacy of the compounds and to normalise for neutrophil recovery.

| Compound | IC50 [1] | IC50 (elastase) | duration of action (intracellular elastase) |
| --- | --- | --- | --- |
| CC(C)[C@H]1C(=O)N(S(C)(=O)=O)[C@H]2CCN(C(=O)C3CN(Cc4ccccc4)C3)[C@H]12 (relative stereo) [Example 2, rel-(3R,3aR,6aS)-4-(1-Benzylazetidine-3-carbonyl)-3-isopropyl-1-methanesulfonyl-hexahydro-pyrrolo[3,2-b]pyrrol-2-one hydrochloride] | 229 nM | 810 nM |  |
| CC(C)[C@H]1C(=O)N(S(C)(=O)=O)[C@H]2CCN(C(=O)C3CN(Cc4c(Cl)cccc4Cl)C3)[C@H]12 (relative stereo) [Example 4, rel-(3R,3aR,6aS)-4-[1-(2,6-Dichloro-benzyl)-azetidine-3-carbonyl]-3-isopropyl-1-methanesulfonyl-hexahydropyrrolo[3,2-b]pyrrol-2-one hydrochloride] | 210 nM | 1200 nM |  |
| CC(C)[C@H]1C(=O)N(S(C)(=O)=O)[C@H]2CCN(C(=O)C3CN(CC(C)(C)C)C3)[C@H]12.Cl (relative stereo) [Example 3, rel-(3R,3aR,6aS)-4-[1-(2,2-Dimethyl-propyl)-azetidine-3-carbonyl]-3-isopropyl-1-methanesulfonyl-hexahydro-pyrrolo[3,2-b]pyrrol-2-one hydrochloride] |  |  | at least 6 hours |

More lines, main results first:

| IC50 [1] | IC50 (elastase) | Compound | duration of action (intracellular elastase) |
| --- | --- | --- | --- |
| 194 nM | 5400 nM | CC(C)[C@H]1C(=O)N(S(C)(=O)=O)[C@H]2CCN(C(=O)C3CN(CC4CC4)C3)[C@H]12 (relative stereo) [Example 1, rel-(3R,3aR,6aS)-4-(1-CyclopropyImethyl-azetidine-3carbonyl)-3-isopropyl-1-methanesulfonyl-hexahydropyrrolo[3,2-b]pyrrol-2-one hydrochloride] |  |
| 93 nM | 1700 nM | CCCCN1CC(C(=O)N2CC[C@H]3[C@H]2[C@@H](C(C)C)C(=O)N3S(C)(=O)=O)C1 (relative stereo) [Example 5, rel-(3R,3aR,6aS)-4-(1-Butyazetidine-3-carbonyl)-3-isopropyl-1-methanesulfonyl-hexahydro-pyrrolo[3,2-b]pyrrol-2-one hydrochloride] |  |
